Laboratory results: US20240158446A1, “CYCLIC COMPOUND HAVING SELECTIVE INHIBITORY ACTION ON KRAS OVER HRAS AND NRAS” (CHUGAI SEIYAKU KABUSHIKI KAISHA, priority 2021, published 2024)

Legend:
[1] = target: GDP-bound KRAS wild-type protein (Homo sapiens, UniProt P01116); experiment: Binding to KRAS by surface plasmon resonance (SPR), Single Cycle Kinetics; conditions: SPR, Single Cycle Kinetics, GDP-bound KRAS wild-type protein; read-out: KRAS KD
[2] = target: GDP-bound HRAS wild-type protein (Homo sapiens, UniProt P01112); experiment: Binding to HRAS by surface plasmon resonance (SPR), Single Cycle Kinetics; conditions: SPR, GDP-bound HRAS wild-type protein vs GDP-bound KRAS wild-type protein
[3] = target: GDP-bound NRAS wild-type protein (Homo sapiens, UniProt P01111); experiment: Binding to NRAS by surface plasmon resonance (SPR), Single Cycle Kinetics; conditions: SPR, GDP-bound NRAS wild-type protein vs GDP-bound KRAS wild-type protein
GDP-bound NRAS wild-type protein, sequence (P01111 whole entry): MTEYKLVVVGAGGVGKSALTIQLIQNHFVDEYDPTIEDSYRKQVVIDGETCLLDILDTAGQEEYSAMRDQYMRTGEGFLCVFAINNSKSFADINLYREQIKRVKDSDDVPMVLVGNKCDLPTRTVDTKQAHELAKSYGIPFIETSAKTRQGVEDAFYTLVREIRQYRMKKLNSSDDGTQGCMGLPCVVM

GDP-bound KRAS wild-type protein, sequence (P01116 whole entry): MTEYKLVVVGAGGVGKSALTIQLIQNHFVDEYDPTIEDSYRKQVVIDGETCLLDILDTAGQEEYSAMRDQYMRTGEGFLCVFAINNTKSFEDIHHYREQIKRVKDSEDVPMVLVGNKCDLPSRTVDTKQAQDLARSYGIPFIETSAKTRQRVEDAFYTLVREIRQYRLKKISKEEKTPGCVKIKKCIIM
GDP-bound HRAS wild-type protein, sequence (P01112 whole entry): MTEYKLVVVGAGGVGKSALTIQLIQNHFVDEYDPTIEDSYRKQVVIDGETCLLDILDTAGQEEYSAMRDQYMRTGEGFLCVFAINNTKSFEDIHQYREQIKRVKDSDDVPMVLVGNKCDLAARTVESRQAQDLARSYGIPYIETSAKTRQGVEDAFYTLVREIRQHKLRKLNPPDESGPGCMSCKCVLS

Kd [1] [nM]	SMILES	HRAS/KRAS (ratio of KD value for HRAS to KD value for KRAS) [2]	NRAS/KRAS (ratio of KD value for NRAS to KD value for KRAS) [3]
0.81	CCC[C@H]1C(=O)N[C@@H](C(CC)CC)C(=O)N(C)CC(=O)N(C)[C@H]2C/C=C\CCN(C2=O)[C@@H](Cc2ccc(C)cc2)C(=O)N(C)CC(=O)N[C@@H](CCc2ccc(C(F)(F)F)c(Cl)c2)C(=O)N2C[C@H](OCC)C[C@H]2C(=O)NC2(CC(C)(C)C2)C(=O)N(C)[C@@H](C2CCCC2)C(=O)N(C)[C@H](C(=O)N(C)C)CC(=O)N1C [PP2209]	A (a compound having 10 or more and less than 20 is denoted as A)	A (a compound having 10 or more and less than 20 is denoted as A)
0.34	CCC[C@H]1C(=O)N[C@@H]([C@@H](C)CC)C(=O)N(C)CC(=O)N(C)[C@H]2C/C=C\CCN(C2=O)[C@@H](Cc2ccc(C)cc2)C(=O)N(C)CC(=O)N[C@@H](CCc2ccc(C(F)(F)F)c(Cl)c2)C(=O)N2C[C@H](CC)C[C@H]2C(=O)NC2(CC(C)(C)C2)C(=O)N(C)[C@@H](C2CCCC2)C(=O)N(C)[C@H](C(=O)N(C)C)CC(=O)N1C [PP2212]	B (a compound having 3 or more and less than 10 is denoted as B)	A (a compound having 10 or more and less than 20 is denoted as A)
0.38	CCC[C@H]1C(=O)N[C@@H]([C@@H](C)CC)C(=O)N(C)CC(=O)N(C)[C@H]2C/C=C\CCN(C2=O)[C@@H](Cc2ccc(C)cc2)C(=O)N(C)CC(=O)N[C@@H](CCc2ccc(C(F)(F)F)c(Cl)c2)C(=O)N2C[C@H](OCC)C[C@H]2C(=O)NC2(CC(C)(C)C2)C(=O)N(C)[C@@H](CC(C)C)C(=O)N(C)[C@H](C(=O)N(C)C)CC(=O)N1C [PP2224]	A (a compound having 10 or more and less than 20 is denoted as A)	A (a compound having 10 or more and less than 20 is denoted as A)
0.82	CCC[C@H]1C(=O)N[C@@H]([C@@H](C)CC)C(=O)N(C)CC(=O)N(C)[C@H]2C/C=C\CCN(C2=O)[C@@H](Cc2ccc(C)cc2)C(=O)N(C)CC(=O)N[C@@H](CCc2ccc(C(F)(F)F)c(Cl)c2)C(=O)N2C[C@H](OCC)C[C@H]2C(=O)NC2(CC(C)(C)C2)C(=O)N(C)[C@@H](CC(F)(F)F)C(=O)N(C)[C@H](C(=O)N(C)C)CC(=O)N1C [PP2226]	A (a compound having 10 or more and less than 20 is denoted as A)	A (a compound having 10 or more and less than 20 is denoted as A)
0.38	CCCOC[C@H]1C(=O)N[C@@H]([C@@H](C)CC)C(=O)N(C)CC(=O)N(C)[C@H]2C/C=C\CCN(C2=O)[C@@H](Cc2ccc(C)cc2)C(=O)N(C)CC(=O)N[C@@H](CCc2cc(F)c(C(F)(F)F)c(F)c2)C(=O)N2C[C@H](CCC)C[C@H]2C(=O)NC2(CCCC2)C(=O)N(C)[C@@H](C2CCCC2)C(=O)N(C)[C@H](C(=O)N(C)C)CC(=O)N1C [PP2229]	A (a compound having 10 or more and less than 20 is denoted as A)	A (a compound having 10 or more and less than 20 is denoted as A)
0.082	CCC[C@H]1C(=O)N[C@@H]([C@@H](C)CC)C(=O)N(C)CC(=O)N(C)[C@H]2C/C=C\CCN(C2=O)[C@@H](Cc2ccc(C)cc2)C(=O)N(C)CC(=O)N[C@@H](CCc2ccc(C(F)(F)F)c(Cl)c2)C(=O)N2C[C@H](OCC)C[C@H]2C(=O)NC2(CC(C)(C)C2)C(=O)N(C)[C@@H](CC(C)(C)C)C(=O)N(C)[C@H](C(=O)N(C)C)CC(=O)N1C [PP2230]	A (a compound having 10 or more and less than 20 is denoted as A)	A (a compound having 10 or more and less than 20 is denoted as A)

Continued, compound first:

SMILES	Kd [1] [nM]	HRAS/KRAS (ratio of KD value for HRAS to KD value for KRAS) [2]	NRAS/KRAS (ratio of KD value for NRAS to KD value for KRAS) [3]
CCO[C@@H]1C[C@H]2C(=O)NC3(CC(C)(C)C3)C(=O)N(C)[C@@H](C(CC)CC)C(=O)N(C)[C@H](C(=O)N(C)C)CC(=O)N(C)[C@@H](CC(C)C)C(=O)N[C@@H]([C@@H](C)CC)C(=O)N(C)CC(=O)N(C)[C@H]3C/C=C\CCN(C3=O)[C@@H](Cc3ccc(C)cc3)C(=O)N(C)CC(=O)N[C@@H](CCc3ccc(Cl)c(Cl)c3)C(=O)N2C1 [PP2185]	0.71	A (a compound having 10 or more and less than 20 is denoted as A)	AA (a compound having 20 or more is denoted as AA)
CCO[C@@H]1C[C@H]2C(=O)NC3(CC(C)(C)C3)C(=O)N(C)[C@@H](C(CC)CC)C(=O)N(C)[C@H](C(=O)N(C)C)CC(=O)N(C)[C@@H](C)C(=O)N[C@@H]([C@@H](C)CC)C(=O)N(C)CC(=O)N(C)[C@H]3C/C=C\CCN(C3=O)[C@@H](Cc3ccc(C)cc3)C(=O)N(C)CC(=O)N[C@@H](CCc3ccc(Cl)c(Cl)c3)C(=O)N2C1 [PP2186]	2.3	A (a compound having 10 or more and less than 20 is denoted as A)	AA (a compound having 20 or more is denoted as AA)
CCO[C@@H]1C[C@H]2C(=O)NC3(CC(C)(C)C3)C(=O)N(C)[C@@H](C(CC)CC)C(=O)N(C)[C@H](C(=O)N3CCCC3)CC(=O)N(C)[C@@H](C)C(=O)N[C@@H]([C@@H](C)CC)C(=O)N(C)CC(=O)N(C)[C@H]3C/C=C\CCN(C3=O)[C@@H](Cc3ccc(C)cc3)C(=O)N(C)CC(=O)N[C@@H](CCc3ccc(Cl)c(Cl)c3)C(=O)N2C1 [PP2187]	0.69	A (a compound having 10 or more and less than 20 is denoted as A)	AA (a compound having 20 or more is denoted as AA)
CCO[C@@H]1C[C@H]2C(=O)NC3(CC(C)(C)C3)C(=O)N(C)[C@@H](C(CC)CC)C(=O)N(C)[C@H](C(=O)N(C)C)CC(=O)N(C)[C@@H](CC)C(=O)N[C@@H]([C@@H](C)CC)C(=O)N(C)CC(=O)N(C)[C@H]3C/C=C\CCN(C3=O)[C@@H](Cc3ccc(C)cc3)C(=O)N(C)CC(=O)N[C@@H](CCc3ccc(Cl)c(Cl)c3)C(=O)N2C1 [PP2188]	0.71	A (a compound having 10 or more and less than 20 is denoted as A)	AA (a compound having 20 or more is denoted as AA)
CCO[C@@H]1C[C@H]2C(=O)NC3(CCCC3)C(=O)N(C)[C@@H](C3CCCC3)C(=O)N(C)[C@H](C(=O)N(C)C)CC(=O)N(C)[C@@H](CC(C)C)C(=O)N[C@@H]([C@@H](C)CC)C(=O)N(C)CC(=O)N(C)[C@H]3C/C=C\CCN(C3=O)[C@@H](Cc3ccc(C)cc3)C(=O)N(C)CC(=O)N[C@@H](CCc3ccc(C(F)(F)F)c(Cl)c3)C(=O)N2C1 [PP2195]	0.096	A (a compound having 10 or more and less than 20 is denoted as A)	A (a compound having 10 or more and less than 20 is denoted as A)
CCC[C@H]1C(=O)N[C@@H](C2CCCC2)C(=O)N(C)CC(=O)N(C)[C@H]2C/C=C\CCN(C2=O)[C@@H](Cc2ccc(C)cc2)C(=O)N(C)CC(=O)N[C@@H](CCc2ccc(C(F)(F)F)c(Cl)c2)C(=O)N2C[C@H](OCC)C[C@H]2C(=O)NC2(CC(C)(C)C2)C(=O)N(C)[C@@H](CC(C)(C)C)C(=O)N(C)[C@H](C(=O)N(C)C)CC(=O)N1C [PP2196]	0.24	B (a compound having 3 or more and less than 10 is denoted as B)	A (a compound having 10 or more and less than 20 is denoted as A)
CCO[C@@H]1C[C@H]2C(=O)NC3(CCCC3)C(=O)N(C)[C@@H](C3CCCC3)C(=O)N(C)[C@H](C(=O)N(C)C)CC(=O)N(C)[C@@H](CC(C)C)C(=O)N[C@@H]([C@@H](C)CC)C(=O)N(C)CC(=O)N(C)[C@H]3C/C=C\CCN(C3=O)[C@@H](Cc3ccc(C)cc3)C(=O)N(C)CC(=O)N[C@@H](CCc3ccc(C(F)(F)F)c(OC)c3)C(=O)N2C1 [PP2197]	0.15	B (a compound having 3 or more and less than 10 is denoted as B)	A (a compound having 10 or more and less than 20 is denoted as A)
CCC[C@H]1C(=O)N[C@@H](C2CCCC2)C(=O)N(C)CC(=O)N(C)[C@H]2C/C=C\CCN(C2=O)[C@@H](Cc2ccc(C)cc2)C(=O)N(C)CC(=O)N[C@@H](CCc2ccc(C(F)(F)F)c(Cl)c2)C(=O)N2C[C@H](OCC)C[C@H]2C(=O)NC2(CC(C)(C)C2)C(=O)N(C)[C@@H](C2CCCC2)C(=O)N(C)[C@H](C(=O)N(C)C)CC(=O)N1C [PP2198]	0.21	A (a compound having 10 or more and less than 20 is denoted as A)	A (a compound having 10 or more and less than 20 is denoted as A)
CCC[C@H]1C(=O)N[C@@H](C(CC)CC)C(=O)N(C)CC(=O)N(C)[C@H]2C/C=C\CCN(C2=O)[C@@H](Cc2ccc(C)cc2)C(=O)N(C)CC(=O)N[C@@H](CCc2ccc(C(F)(F)F)c(Cl)c2)C(=O)N2C[C@H](OCC)C[C@H]2C(=O)NC2(CC(C)(C)C2)C(=O)N(C)[C@@H](CC(C)(C)C)C(=O)N(C)[C@H](C(=O)N(C)C)CC(=O)N1C [PP2207]	0.79	A (a compound having 10 or more and less than 20 is denoted as A)	A (a compound having 10 or more and less than 20 is denoted as A)
CCC[C@@H]1C[C@H]2C(=O)NC3(CC(C)(C)C3)C(=O)N(C)[C@@H](C3CCCC3)C(=O)N(C)[C@H](C(=O)N(C)C)CC(=O)N(C)[C@@H](CC)C(=O)N[C@@H]([C@@H](C)CC)C(=O)N(C)CC(=O)N(C)[C@H]3C/C=C\CCN(C3=O)[C@@H](Cc3ccc(C)cc3)C(=O)N(C)CC(=O)N[C@@H](CCc3cc(F)c(C(F)(F)F)c(F)c3)C(=O)N2C1 [PP2208]	0.2	A (a compound having 10 or more and less than 20 is denoted as A)	A (a compound having 10 or more and less than 20 is denoted as A)
